In BigSolDB 2.1:

O=C(O)c1ccco1
solubility (mole fraction) (in acetone, 280.15 K): 0.153
solubility (mole fraction) (in acetone, 283.25 K): 0.159
solubility (mole fraction) (in acetone, 288.55 K): 0.172
solubility (mole fraction) (in acetone, 293.25 K): 0.189
solubility (mole fraction) (in acetone, 299.15 K): 0.206
solubility (mole fraction) (in acetone, 302.95 K): 0.218
solubility (mole fraction) (in acetone, 308.45 K): 0.237
solubility (mole fraction) (in acetone, 315.75 K): 0.265
solubility (mole fraction) (in ethanol, 279.35 K): 0.152
solubility (mole fraction) (in ethanol, 282.75 K): 0.162
solubility (mole fraction) (in ethanol, 287.35 K): 0.176
solubility (mole fraction) (in ethanol, 294.55 K): 0.198
solubility (mole fraction) (in ethanol, 297.65 K): 0.208
solubility (mole fraction) (in ethanol, 303.05 K): 0.225
solubility (mole fraction) (in ethanol, 310.15 K): 0.25
solubility (mole fraction) (in ethanol, 313.75 K): 0.268
solubility (mole fraction) (in ethanol, 320.75 K): 0.29
solubility (mole fraction) (in ethanol, 325.75 K): 0.311
solubility (mole fraction) (in ethyl acetate, 281.35 K): 0.0858
solubility (mole fraction) (in ethyl acetate, 287.05 K): 0.0983
solubility (mole fraction) (in ethyl acetate, 291.95 K): 0.11
solubility (mole fraction) (in ethyl acetate, 296.55 K): 0.124
solubility (mole fraction) (in ethyl acetate, 301.25 K): 0.137
solubility (mole fraction) (in ethyl acetate, 305.15 K): 0.147
solubility (mole fraction) (in ethyl acetate, 307.45 K): 0.157
solubility (mole fraction) (in ethyl acetate, 312.15 K): 0.171
solubility (mole fraction) (in ethyl acetate, 316.35 K): 0.191
solubility (mole fraction) (in ethyl acetate, 322.35 K): 0.216
solubility (mole fraction) (in methyl acetate, 280.85 K): 0.106
solubility (mole fraction) (in methyl acetate, 284.15 K): 0.117
solubility (mole fraction) (in methyl acetate, 287.75 K): 0.127
solubility (mole fraction) (in methyl acetate, 291.65 K): 0.137
solubility (mole fraction) (in methyl acetate, 295.05 K): 0.146
solubility (mole fraction) (in methyl acetate, 298.75 K): 0.156
solubility (mole fraction) (in methyl acetate, 302.35 K): 0.166
solubility (mole fraction) (in methyl acetate, 308.25 K): 0.184
solubility (mole fraction) (in methyl acetate, 316.35 K): 0.216
solubility (mole fraction) (in methyl acetate, 319.35 K): 0.232
solubility (mole fraction) (in n-propanol, 282.95 K): 0.138
solubility (mole fraction) (in n-propanol, 288.35 K): 0.158
solubility (mole fraction) (in n-propanol, 293.75 K): 0.176
solubility (mole fraction) (in n-propanol, 297.55 K): 0.195
solubility (mole fraction) (in n-propanol, 303.15 K): 0.208
solubility (mole fraction) (in n-propanol, 307.65 K): 0.226
solubility (mole fraction) (in n-propanol, 312.55 K): 0.244
solubility (mole fraction) (in n-propanol, 315.45 K): 0.258
solubility (mole fraction) (in n-propanol, 319.75 K): 0.273
solubility (mole fraction) (in n-propanol, 326.15 K): 0.3
solubility (mole fraction) (in water, 284.85 K): 0.0032
solubility (mole fraction) (in water, 295.25 K): 0.0064
solubility (mole fraction) (in water, 299.45 K): 0.0079
solubility (mole fraction) (in water, 304.65 K): 0.0095
solubility (mole fraction) (in water, 310.65 K): 0.0127
solubility (mole fraction) (in water, 313.25 K): 0.0156
solubility (mole fraction) (in water, 316.85 K): 0.0184
solubility (mole fraction) (in water, 319.45 K): 0.022
solubility (mole fraction) (in water, 321.95 K): 0.0282
solubility (mole fraction) (in water, 324.75 K): 0.0342
